Measurements: patent US12053451B2, “Arginase inhibitors and their therapeutic applications” (OncoArendi Therapeutics S.A., priority 2016, dated 2024)
Structures can show the parent of a compound that is named as a salt.

What was measured:
[1] = biological target: T1, intracellular arginase in macrophages isolated from murine bone marrow (BMDM) (Mus musculus, UniProt Q61176); assay: Cell-based assay: intracellular arginase in bone marrow derived macrophages (BMDM), urea level; design: species or system Balb/c mice; details: murine BMDM with M-CSF and IL-4, urea measured 24 hours after compound; * = most potent diastereoisomer or mixture of diastereoisomers; read-out: Activity Class (BMDM)
T1 construct: endogenous in cells; host or cells: primary bone marrow derived macrophages from Balb/c mice, M-CSF and IL-4 treated
T1 sequence (Q61176 1-323): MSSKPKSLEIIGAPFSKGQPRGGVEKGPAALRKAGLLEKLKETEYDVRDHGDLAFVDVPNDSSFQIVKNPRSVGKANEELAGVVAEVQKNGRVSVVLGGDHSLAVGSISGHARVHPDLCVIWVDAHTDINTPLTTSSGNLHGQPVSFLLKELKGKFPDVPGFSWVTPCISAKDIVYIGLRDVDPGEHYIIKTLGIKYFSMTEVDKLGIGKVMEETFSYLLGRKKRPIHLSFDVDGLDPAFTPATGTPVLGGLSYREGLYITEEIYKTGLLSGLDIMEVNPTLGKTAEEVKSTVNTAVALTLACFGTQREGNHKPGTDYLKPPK
Procedure: Efficacy of Selected Examples Towards Intracellular Arginase in Macrophages Isolated from Murine Bone Marrow—Bone Marrow Derived Macrophages (BMDM)
Materials & Methods: The assay was performed according to modified literature protocol modification (Pineda-Torra I et al., Methods Mol Biol. 2015; 1339:101-9. Mia S et al. Scand J Immunol. 2014 May; 79(5):305-14). The femurs and tibias were isolated from Balb/c mice. Bones were cleaned from all attached tissues by using sterile swab without affecting the bone structure. Bones were sterilized by immersion in 70% ethanol for 5 min and then rinsed in PBS. The sides of the bones were cut off and flush with cold sterile PBS by using 26-G needle S into a 50 mL sterile tube with a cell strainer (Falcon™, Cat. No. U00149), until bone cavity appeared white. Then the cells were centrifuged (5 min at 500×G, 4° C.), washed twice with PBS and counted. Cells were plated in Petri dish in density of 1×10^6/mL and cultured in DMEM (Gibco, Cat. No. 31331-029) with 10% FBS, 1% pen-strep and 50 ng/mL M-CSF (PeproTech, Cat. No. 315-02), (37° C., 5% CO2). After five days cells were subcultured into P96 plate (BD, Cat. No. 353072) in density of 64 000 cells/well in medium supplemented with 50 ng/mL M-CSF and 20 ng/mL IL-4 (Biomibo Cat. No. 214-1). One day later exemplary compounds (dissolved in PBS) were added in several different concentrations and 24 hours later the level of urea was measured in each well (Jung D et al., Clin Chem. 1975, 21(8):1136-40). The concentration of urea in the absence of any compound was considered as the maximum. The absorbance of cell culture media (background) was subtracted from all the values.
(§1) For selected examples the activity class for ARG2 was estimated based on % of inhibition for 1 μM and 100 μM concentration of tested compounds.

[2] = biological target: T2, recombinant human arginase 1 (Homo sapiens, UniProt P05089); assay: Human arginase activity assay (urea measurement), arginase 1; assay type: biochemical; details: recombinant human arginase 1, pH 7.4, 37° C., 60 min; * = value for the most potent diastereoisomer or the mixture of diastereoisomers; read-out: Activity Class (ARG I)
T2 construct: purchased Biolegend 552502
T2 sequence (P05089 1-322): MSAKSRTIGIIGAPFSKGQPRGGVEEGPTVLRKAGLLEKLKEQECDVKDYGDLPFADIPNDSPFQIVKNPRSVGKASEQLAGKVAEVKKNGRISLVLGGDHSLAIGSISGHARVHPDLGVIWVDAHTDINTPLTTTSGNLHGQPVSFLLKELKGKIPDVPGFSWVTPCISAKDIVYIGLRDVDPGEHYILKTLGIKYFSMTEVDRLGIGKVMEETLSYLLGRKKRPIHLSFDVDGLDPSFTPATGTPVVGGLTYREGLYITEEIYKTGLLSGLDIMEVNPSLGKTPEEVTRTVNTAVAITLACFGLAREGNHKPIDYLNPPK
Procedure: (§2) Human Arginase Activity Assay
The assay was run in the 96-well plate format, each reaction in the total volume of 100 uL. The assay is based on urea measurement, which is a product of L-arginine enzymatic degradation. […] The color product is developed by adding a mixture of reagent A (4 mM oPA in 50 mM boric acid in 1M sulfuric acid, 0.03% Brij-35) and reagent B (4 mM NED in 50 mM boric acid in 1M sulfuric acid, 0.03% Brij-35) in equal proportions. The absorbance for each well was measured at 530 nm.
(§3) For positive control, only the enzyme and substrate were used, the negative controls contained substrate solution with assay buffer. After incubating the microtiter plate at 37° C. for 60 min 150 μL of mixed reagents A and B was added to each well to stop the reaction. Absorbance was measured (λ=530 nm) 20 minutes later, after color development. The urea production in the absence of any compound was considered the maximum arginase activity. The absorbance in the absence of arginase (background) was subtracted from all the values. The normalized OD was used to generate a concentration-response curve by plotting the percent of inhibition against log[concentration] of the compound and using regression analysis (GraphPad Prism 7.0) to compute the IC50 values.

[3] = biological target: T3, recombinant human arginase 2 (Homo sapiens, UniProt P78540); assay: Human arginase activity assay (urea measurement), arginase 2; assay type: biochemical; details: for selected examples class estimated from % of inhibition at 1 μM and 100 μM, * = most potent diastereoisomer or mixture of diastereoisomers, read-out: Activity Class (ARG II)
T3 construct: made in house; host or cells: CHO
T3 sequence (P78540 23-354): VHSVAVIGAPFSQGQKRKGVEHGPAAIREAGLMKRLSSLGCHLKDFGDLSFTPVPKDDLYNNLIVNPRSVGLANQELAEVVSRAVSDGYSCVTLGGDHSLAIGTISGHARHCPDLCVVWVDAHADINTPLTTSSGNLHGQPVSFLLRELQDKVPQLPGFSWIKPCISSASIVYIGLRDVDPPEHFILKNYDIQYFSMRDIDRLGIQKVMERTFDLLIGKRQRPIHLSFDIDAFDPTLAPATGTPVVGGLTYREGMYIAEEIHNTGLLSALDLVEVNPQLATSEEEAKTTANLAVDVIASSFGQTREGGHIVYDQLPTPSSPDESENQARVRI
Procedure: as §2
An enzymatic assay with recombinant human arginases 1 (Biolegend, Cat. No. 552502) and 2 (homemade in eukaryotic expression system of CHO, purified by FPLC) was used in order to assess inhibitory activity of the compounds. The assay was run in the 96-well plate format, each reaction in the total volume of 100 uL. The assay is based on urea measurement, which is a product of L-arginine enzymatic degradation. (Baggio et al. J Pharmacol. Exp. Ther. 1999, 290, 1409-1416). The color product is developed by adding a mixture of reagent A (4 mM oPA in 50 mM boric acid in 1M sulfuric acid, 0.03% Brij-35) and reagent B (4 mM NED in 50 mM boric acid in 1M sulfuric acid, 0.03% Brij-35) in equal proportions. The absorbance for each well was measured at 530 nm.
as §3, with “Briefly, to each well of a 96-well microtiter plate 40 μL of enzyme in the reaction assay buffer (pH 7.4, 100 mM sodium phosphate buffer, 130 mM NaCl, 1 mg/mL albumin), 50 μL of the test compound solution and 10 μL of enzyme substrate solution (L-arginine hydrochloride, natural pH 5.6, final concentration 20 mM and a cofactor—manganese chloride, final concentration 150 μM) was added. For” for “For”
as §1

IC50 [1] [µM]	IC50 [2] [µM]	IC50 [3] [µM]	SMILES
10 to 100	1 to 10		N[C@@]1(C(=O)O)CNC[C@@H](CCB(O)O)C1 (racemic) [Example 57, rac-(3R,5S)-3-amino-5-(2-boronoethyl)piperidine-3-carboxylic acid dihydrochloride]
	> 100	0.1 to 1	N[C@]1(C(=O)O)C[C@H](CCB(O)O)CC[C@H]1CNCC(F)(F)F (racemic) [Example 36, rac-(1R,2S,5R)-1-amino-5-(2-boronoethyl)-2-(((2,2,2-trifluoroethyl)amino)methyl)cyclohexanecarboxylic acid dihydrochloride]
	1 to 10	1 to 10	CN(C[C@@H]1CC[C@@H](CCB(O)O)C[C@]1(N)C(=O)O)c1ccccc1 (racemic) [Example 40, rac-(1R,2S,5R)-1-amino-5-(2-boronoethyl)-2-((methyl(phenyl)amino)methyl)cyclohexanecarboxylic acid dihydrochloride]
	10 to 100	10 to 100	N[C@@]1(C(=O)O)C[C@H](CCB(O)O)[C@@H](O)C1 (racemic) [Example 4, rac-(1S,3S,4S)-1-Amino-3-(2-boronoethyl)-4-hydroxycyclopentane-1-carboxylic acid hydrochloride]
	1 to 10	1 to 10	COc1ccc(N(C)C[C@@H]2CC[C@@H](CCB(O)O)C[C@]2(N)C(=O)O)cc1 (racemic) [Example 37, rac-(1R,2S,5R)-1-amino-5-(2-boronoethyl)-2-(((4-methoxyphenyl)(methyl)amino)methyl)cyclohexanecarboxylic acid dihydrochloride]
	1 to 10	1 to 10	CN(C)C[C@@H]1CC[C@@H](CCB(O)O)C[C@@]1(N)C(=O)O (racemic) [Example 19, rac-(1S,2S,5R)-1-amino-5-(2-boronoethyl)-2-((dimethylamino)methyl)cyclohexane-1-carboxylic acid dihydrochloride]
	10 to 100	10 to 100	NC1(C(=O)O)CC(CCB(O)O)CCC1(O)Cc1ccc(Cl)cc1 (single isomer, unassigned) [Example 52, 1-amino-5-(2-boronoethyl)-2-(4-chlorobenzyl)-2-hydroxycyclohexanecarboxylic acid hydrochloride]
	> 100	> 100	NC1(C(=O)O)CNC(CCB(O)O)C1 (centres unmarked) [Example 9, 3-Amino-5-(2-boronoethyl)pyrrolidine-3-carboxylic acid dihydrochloride]
	> 100	> 100	CC1(CCB(O)O)CCC(N)(C(=O)O)C1 (racemic) [Example 3, 1-amino-3-(2-boronoethyl)-3-methylcyclopentane-1-carboxylic acid]
	> 100	> 100	N[C@@]1(C(=O)O)C[C@H](CCB(O)O)CC[C@@H]1O (racemic) [Example 15, rac-(1S,2S,5R)-1-Amino-5-(2-boronoethyl)-2-hydroxycyclohexane-1-carboxylic acid hydrochloride]
0.1 to 1	0.001 to 0.1		CC(C)(C)NC[C@@H]1CC[C@@H](CCB(O)O)C[C@]1(N)C(=O)O (racemic) [Example 33, rac-(1R,2S,5R)-1-amino-5-(2-boronoethyl)-2-((tert-butylamino)methyl)cyclohexanecarboxylic acid dihydrochloride]
	0.1 to 1	0.001 to 0.1	CN(C)CCC1CC[C@@H](CCB(O)O)CC1(N)C(=O)O (single isomer, unassigned) [Example 47, dihydrochloride]
	1 to 10	1 to 10	CN1C[C@@H](CCB(O)O)C[C@](N)(C(=O)O)C1 (racemic) [Example 59, rac-(3R,5S)-3-amino-5-(2-boronoethyl)-1-methylpiperidine-3-carboxylic acid]
	> 100	> 100	NC1(C(=O)O)CCCCC(CCB(O)O)C1 (centres unmarked) [Example 12, 1-Amino-3-(2-boronoethyl)cycloheptane-1-carboxylic acid hydrochloride]
	> 100	> 100	N[C@]1(C(=O)O)C[C@H](CCB(O)O)[C@@H](O)C1 (racemic) [Example 5, rac-(1R,3S,4S)-1-Amino-3-(2-boronoethyl)-4-hydroxycyclopentane-1-carboxylic acid hydrochloride]
	0.1 to 1	10 to 100	N[C@]1(C(=O)O)C[C@H](CCB(O)O)CC[C@H]1O (racemic) [Example 13, rac-(1R,2R,5R)-1-Amino-5-(2-boronoethyl)-2-hydroxycyclohexane-1-carboxylic acid hydrochloride]
